Entries after “also recorded” stand apart in the source; their conditions may differ.
Experiments:
NOD mice = assay: Prevention of diabetes in non-obese diabetic (NOD) mice, GABA daily injections from age of 5 week; type: in vivo
Description: To examine the role of GABA in the development of diabetes in NOD mice, GABA daily injections were started at age of 5 week and PBS injections as control. Islet immunohistochemistry was performed at their age of 13 wks before the onset of obvious diabetic hyperglucemia. […] It is noted that beyond this age, the blood glucose levels of saline-treated NOD mice were out of the scale of the measurement (red arrows FIG. 6F). These non-treated NOD mice also developed impaired glucose tolerance (FIG. 6F, 6G), associated with reduced circulating C-peptide (FIG. 6H) and elevated circulating glucagon levels (FIG. 6I).
(§1) The techniques used for the in vivo and in vitro studies in this embodiment of the disclosure are also described. CD1 mice (Charles River Laboratories, St Constant, Canada), NOD mice and transgenic TCR NOD mice (Jackson Laboratory, USA) were housed under a controlled temperature and a 12-h light/12-h dark cycle in the St. Michael's Hospital Animal facility with free access to food (normal rodent chow) and water, except where noted. All procedures were conducted according to protocols and guidelines approved by the Canadian Council of Animal Care and the St. Michael's Hospital Animal Care committee. Mice were treated with GABA by daily intraperitoneal (i.p.) injection of 20·g GABA per mouse to reach ˜200 μM circulation concentration and PBS as control. The daily treatment is continuously conducted during 60-day experimental period. One wk after the GABA and PBS treatment, diabetes was induced in both groups by i.p.-injection of low-dose streptozotocin (STZ, Sigma Chemical Co., St. Louis, Mo. 40 mg/kg body weight) for 5 consecutive days. The development of hyperglycemia was monitored by measuring blood glucose from the tail vein every third day following STZ injections using an Ascensia ELITE® XL glucose meter. For some studies, overtly diabetic mice induced by STZ and without GABA treatment were divided into two groups: one group started receiving daily i.p. injection of 20·g GABA whereas other group received only PBS. The treatment was continued for 75 days. The handling of the NOD mice were similar to those CD1 mice except the STZ injection. The NOD mice have a susceptibility to spontaneous development of autoimmune T1D. The TCR transgenic 8.3-NOD mice have a markedly accelerated disease (J. Vergdaguer et al, 1997 J Exp Med. 186(10):1663-76).
(§2) Groups of mice were subject to a glucose tolerance test (IPGTT) before treatment (day 0), one, three, and five weeks after administration and the day prior termination. For IPGTT, mice were fasted overnight for 15 h, and were given 1.5 g glucose/kg body weight via i.p.-injection. Blood was drawn from the tail vein and blood glucose was measured at 0, 10, 20, 30, 60, 90, and 120 min after glucose administration.
(§3) Blood samples (200 μL) were collected from the saphenous vein at time as indicated and at the termination of experiments via cardiac puncture (1 mL) for measurement of insulin, glucagon, and cytokine profiles. Serum was collected by centrifugation and stored at −80° C. until use. Insulin and glucagon concentration in serum samples were determined using insulin ELISA kit (Crystal Chem., Chicago, Ill., USA) and glucagon RIA kit (Linco Research, St. Louis, Miss., USA). Circulating GLP-1 levels were determined using GLP-1 RIA kit (Linco Research, St. Louis, Miss., USA). Cytokine concentration in the serum samples was determined using kit Multiplex Bead-based Cytokine assay (BioRed, Canada).
Following dewaxing, […] as described previously (Wang Q, Brubaker P L 2002 Diabetologia 45:1263-1273), endogenous peroxidase activity was quenched by incubating sections in 0.3% H2O2 in water for 30 min and antigen retrieval was performed by heating slides in 10 mM sodium citrate buffer, pH 6.0, at ˜70° C. for 30 min. […]

INS-1 cells = assay: Insulin secretion from INS-1 cells; type: cell-based; conditions: dose dependent
[1] = system: established diabetic MLDS-mice; assay: Reversal of well established diabetes in MLDS-mice by daily GABA injection; type: in vivo
Description: To investigate if GABA can reverse diabetes, daily GABA injection was started in well established diabetes in MLDS-mice (blood glucose>30 mM).
as §1, §2
Mice were housed in metabolic cages prior to initiation of GABA and PBS treatment and before termination of experiments. Food intake, water consumption and urine output were measured. To determine the fat distribution, three intra-abdominal fat pads retroperitoneal, mesenteric and epididymal were dissected and weighed. Subcutaneous fat was also analyzed.
as §3
Pancreas harvesting and tissue processing were performed as described previously (Wang Q, Brubaker P L 2002 Diabetologia. 45(9):1263-73). Briefly, after cardiac puncture under anesthesia, a midlaparotomy was performed and the pancreas was immediately dissected from surrounding tissues, cleared of fat and lymph nodes, blotted, weighed, and placed in a formaldehyde-acetic acid solution. The procedure from completion of cardiac puncture to placement of tissue in fixative was completed within 5 min. After overnight fixation, the pancreas was washed in cold running water, cut into 10-12 segments. […]

STC-1 cells = assay: GLP-1 production and secretion in gut-derived cells (GLP-1 RIA); type: cell-based
Description: In these in vitro assays using GLP-1-secreting and/or insulin-secreting cells, it was shown that the production and secretion of GLP-1 in the gut-derived cells (STC-1) were modulated by GABA, and the production and release of GABA from the beta-cells were also modulated by GLP-1. The specificity of these assays was determined by including the GABAAR antagonists or GLP-1 receptor antagonist in the assays.
Effects of GABA on stimulation of GLP-1 secretion from gut-derived cell lines. The production and secretion of GLP-1 in the gut-derived cells (STC-1) are examined by GLP-1 RIA. The time and dose dependent effects of GABA on GLP-1 production and secretion are examined in the gut cell lines in the presence of various concentration of GABA in which the specificity is determined by including the GABAAR antagonists in the assay.

[2] = age of 13 wks, GABA-treated NOD mice
[3] = day 74 after GABA daily administration

`NCCCC(=O)O` [GABA, gamma-aminobutyric acid] was tested, and the “beta-cell apoptosis (anti-caspase-3 islet histochemistry)” value (NOD mice; GABA-treated NOD mice) was “reduced”, the “circulating C-peptide” value (NOD mice; GABA-treated NOD mice) was “close to those measured at their earlier age; also recorded: significantly increased circulating C-peptide” and the circulating glucagon levels (NOD mice; GABA-treated NOD mice) was “close to those measured at their earlier age; also recorded: reduced glucagon levels”. The glucose tolerance (NOD mice; GABA-treated NOD mice) was “close to normal glucose tolerance”, the “ratio of insulin to glucagon” value (NOD mice; GABA-treated NOD mice) was “significantly elevated the ratio of insulin to glucagon” and the “onset of diabetes / development of severe diabetic hyperglycemia” value (NOD mice; NOD mice) was “significantly prevented development of severe diabetic hyperglycemia; also recorded: prevents onset of diabetes”. The severe insulitis (NOD mice; age of 13 wks) was “no severe insulitis was seen”, the “islets areas occupied by lymphocytes in islets with relatively severe insulitis” value (NOD mice; [2]) was 20-30% and the “islets with normal morphology without lymphocyte infiltration” value (NOD mice; [2]) was greater than 70%. The “islets with relatively severe insulitis” value (NOD mice; [2]) was “about 15%”, the blood glucose levels (NOD mice; at 18 wks of age, vs saline-treated NOD mice) was “kept lower blood glucose levels” and the “insulin secretion from INS-1 cells” value (INS-1 cells) was “stimulated insulin secretion; also recorded: dose-dependently increases insulin secretion”. For the same compound, the “glucose tolerance (IPGTT) at 7th days after GABA injections” value ([1]; 7th day) was “significantly improved; also recorded: improved glucose tolerance”, the “blood glucose / diabetic hyperglycemia, course” value ([1]; daily GABA started at blood glucose>30 mM) was “started to decline only a few days after GABA injection; also recorded: reverses MLDS-induced diabetic hyperglycemia; also recorded: completely reversed diabetic hyperglycemia” and the “blood glucose levels at day 74” value [1, 3] was “closed to the normal range”. For the same compound, the “glucose tolerance at day 74” value [1, 3] was “almost identical to control normal mice; also recorded: improved glucose tolerance”, the “metabolic conditions (metabolic studies)” value ([1]; established diabetic MLDS mice) was “normalized metabolic conditions; also recorded: normalized metabolic status” and the “glucose tolerance at all time points examined” value ([1]; including two weeks and eight weeks after GABA injections) was “steadily improves glucose tolerance”. For the same compound, the islet morphology ([1]; islet histochemistry) was “almost normal islet morphology”, the “lymphocytes in the islets” value ([1]; islet histochemistry) was “few lymphocytes were seen” and the alpha-cell mass ([1]; vs non-treated MLDS-mice) was “reduced alpha-cell mass”. The beta-cell mass ([1]; vs non-treated MLDS-mice) was “significant enlarged beta-cell mass; also recorded: significantly restored beta-cell mass”, the circulating glucagon ([1]; vs non-treated MLDS-mice) was “reduced circulating glucagon levels” and the circulating insulin ([1]; vs non-treated MLDS-mice) was “elevated circulating insulin”. The “ratio of insulin to glucagon” value ([1]; vs non-treated MLDS-mice) was “largely increased ratio of insulin to glucagon; also recorded: significantly increased” and the “production and secretion of GLP-1 in gut-derived cells (STC-1)” value (STC-1 cells) was “modulated”.

Source: patent US9463174B2, “Pharmaceutical composition for the treatment of type-1 diabetes” (priority 2008, dated 2016)
